The values that follow come from US10398697B2, “Solid solution comprising (6S)-5-methyl tetrahydrofolic acid or salt thereof, and preparation and use thereof” (priority 2014, dated 2019).

Read-outs that look alike come from different tables or passages of the source.

The subject of data set [1] is mice. The data set can be described thus: Single dose toxicity of JK1303, kidney findings after 14 days. Particulars: 14 days after a single dose of 1000 mg/kg. Format: in vivo.
The conditions of data set [2]: acute toxicity test data published at present; cited from earlier work.
Data set [3] deals with mice. Particulars: after harmful impurities eliminated by the technology of the invention.
Data set [4] relates to mice. The data set can be described thus: Acute toxicity study of JK12A. Format: in vivo. Particulars: dose of 2000 mg/kg.
Data set [5] concerns T lymphocyte proliferation. The data set can be described thus: T lymphocyte proliferation, stimulus with Con A (CPM). Format: cell-based.
Another data set has as its system T lymphocyte. The data set is described as follows: Cell survival rate (OD) of lymphocytes with JK12A. Format: cell-based.
[6] abbreviates: Amount of VC 0, day 0, 25° C. and 40% humidity.
The mark [7] stands for this setting: Amount of VC 0, day 7, 25° C. and 40% humidity.
[8] abbreviates: Amount of VC 0, day 15, 25° C. and 40% humidity.
[9] abbreviates: Amount of VC 0, day 30, 25° C. and 40% humidity.
Setting [10] is: Amount of VC 0, day 60, 25° C. and 40% humidity.
The mark [11] stands for this setting: Amount of VC 20%, day 0, 25° C. and 40% humidity.
[12] abbreviates: Amount of VC 20%, day 7, 25° C. and 40% humidity.
Where [13] appears, read: Amount of VC 20%, day 15, 25° C. and 40% humidity.
Where [14] appears, read: Amount of VC 20%, day 30, 25° C. and 40% humidity.
Setting [15] is: Amount of VC 20%, day 60, 25° C. and 40% humidity.
Where [16] appears, read: Amount of VC 100%, day 0, 25° C. and 40% humidity.
The mark [17] stands for this setting: Amount of VC 100%, day 7, 25° C. and 40% humidity.
Setting [18] is: Amount of VC 100%, day 15, 25° C. and 40% humidity.
Setting [19] is: Amount of VC 100%, day 30, 25° C. and 40% humidity.
[20] abbreviates: Amount of VC 100%, day 60, 25° C. and 40% humidity.
The mark [21] stands for this setting: Amount of VC 500%, day 0, 25° C. and 40% humidity.
Setting [22] is: Amount of VC 1000%, day 0, 25° C. and 40% humidity.
Setting [23] is: Amount of VC 10000%, day 0, 25° C. and 40% humidity.
The mark [24] stands for this setting: Concentration determined 0.164 M.
Where [25] appears, read: Concentration determined 0.41 M.
The mark [26] stands for this setting: Concentration determined 1.024 M.
Setting [27] is: Concentration determined 2.56 M.
The mark [28] stands for this setting: Concentration determined 16.0 M.
Where [29] appears, read: Concentration determined 100.000 µM.

Consider “(6S)-5-methyl tetrahydrofolic acid calcium salt [Example 11]”, for which the “(6S)-5-methyl tetrahydrofolic acid calcium salt content” value runs as follows: under setting [6], 99.95%; under setting [7], 99.90%; under setting [8], 99.85%; under setting [9], 99.63%; under setting [10], 99.40%; under setting [11], 99.95%. For the same molecule, the “(6S)-5-methyl tetrahydrofolic acid calcium salt content” value is on record as 99.94% under setting [12]; 99.89% under setting [13]; 99.71% under setting [14]; 99.50% under setting [15]; 99.95% under setting [16]; 99.94% under setting [17]. Moreover, the “(6S)-5-methyl tetrahydrofolic acid calcium salt content” value is, setting by setting: under setting [18], 99.90%; under setting [19], 99.90%; under setting [20], 99.86%; under setting [21], 99.95%; (Amount of VC 500%, day 7, 25° C. and 40% humidity) 100.00%; (Amount of VC 500%, day 15, 25° C. and 40% humidity) 100.00%. Also, the “(6S)-5-methyl tetrahydrofolic acid calcium salt content” value is recorded as 99.98% (Amount of VC 500%, day 30, 25° C. and 40% humidity); 99.96% (Amount of VC 500%, day 60, 25° C. and 40% humidity); 99.95% under setting [22]; 100.00% (Amount of VC 1000%, day 7, 25° C. and 40% humidity); 100.00% (Amount of VC 1000%, day 15, 25° C. and 40% humidity); 100.00% (Amount of VC 1000%, day 30, 25° C. and 40% humidity). In addition, the “(6S)-5-methyl tetrahydrofolic acid calcium salt content” value by setting is: (Amount of VC 1000%, day 60, 25° C. and 40% humidity) 100.00%; under setting [23], 99.95%; (Amount of VC 10000%, day 7, 25° C. and 40% humidity) 100.00%; (Amount of VC 10000%, day 15, 25° C. and 40% humidity) 100.00%; (Amount of VC 10000%, day 30, 25° C. and 40% humidity) 100.00%; (Amount of VC 10000%, day 60, 25° C. and 40% humidity) 100.00%. The JK12A content by setting is: under setting [6], 0.03%; under setting [7], 0.06%; under setting [8], 0.12%; under setting [9], 0.25%; under setting [10], 0.46%; under setting [11], 0.03%. The JK12A content by setting is: under setting [12], 0.04%; under setting [13], 0.08%; under setting [14], 0.17%; under setting [15], 0.22%; under setting [16], 0.03%; under setting [17], 0.03%. For the same molecule, the JK12A content is given as 0.05% under setting [18]; 0.05% under setting [19]; 0.10% under setting [20]; 0.03% under setting [21]; 0.03% under setting [22]; 0.03% under setting [23].

As to `CN1C2CNC3=NC(N)=NCC31N(c1ccc(C(=O)O)cc1)C2` (centres unmarked) [JK1303], in the data set with mice [1], the “anatomical finding in the renal tubules” value is “a large number of vacuoles” and the renal toxicity finding entry is listed as “severe renal tubular necrosis”.

Turning to calcium (6S)-5-methyltetrahydrofolate, the “LD50 (median lethal dose)” value in data set [2] is given as 2000 mg/kg. Also, in the data set with mice [3] (dosage of 15000 mg/kg), the response of mice entry is given as “no abnormal response”. In the data set on mice [3] (mice), the “maximum tolerable dose (MTD)” value is given as “greater than 15 g/kg”.

For the molecule `CN1C2CNC3=NC(N)=NCC31N(c1ccc(C(=O)NC(CCC(=O)O)C(=O)O)cc1)C2` (centres unmarked) [JK12A], in the data set with mice [4], the “anatomical findings in liver and kidney” value is listed as “no significant changes”. The “effect on T lymphocyte proliferation” value in data set [5] is “significant inhibitory effect”. Also, the “T cell proliferation Comprehensive evaluation Percent enhancement/inhibition” value in data set [5] (setting [24]) is reported as −8%; in data set [5] (setting [25]) it was −68%; in data set [5] (setting [26]) it was −60%; in data set [5] (setting [27]), −42%; in data set [5] (Concentration determined 6.4 M) it was −30%; in data set [5] (setting [28]) it was −18%. Further, in data set [5] (Concentration determined […]), the “T cell proliferation Comprehensive evaluation Percent enhancement/inhibition” value is reported as −1%. Besides, the “T lymphocyte Stimulus with Con A Mean CPM” value in data set [5] (setting [24]) turned out to be 40459 CPM; in data set [5] (setting [25]), 14073 CPM; in data set [5] (setting [26]) it was 17590 CPM; in data set [5] (setting [27]) it was 25507 CPM; in data set [5] (Concentration determined 6.4 M) it was 30784 CPM; in data set [5] (setting [28]) it was 36061 CPM. In addition, the “T lymphocyte Stimulus with Con A Mean CPM” value in data set [5] (Concentration determined […]) was 43537 CPM. The Cell survival rate with T lymphocyte (setting [29]) is 73%; in the data set with T lymphocyte (setting [25]) it was 75%; in the data set on T lymphocyte (setting [26]), 59%; in the data set with T lymphocyte (setting [27]), 62%; with T lymphocyte (Concentration determined 6.4 M), 84%; with T lymphocyte (setting [28]), 92%. Besides, the Cell survival rate in the data set with T lymphocyte (Concentration determined […]) is recorded as 89%. Moreover, the “Mean OD” value was 0.089 with T lymphocyte (setting [29]); 0.052 with T lymphocyte (setting [25]); 0.073 in the data set on T lymphocyte (setting [26]); 0.076 in the data set with T lymphocyte (setting [27]); 0.103 in the data set on T lymphocyte (Concentration determined 6.4 M); 0.113 in the data set on T lymphocyte (setting [28]). Also, in the data set on T lymphocyte (Concentration determined […]), the “Mean OD” value is reported as 0.109.
